Reference: patent US11564394B2, “Distorted gold (I)-phosphine complexes and methods for use as antifungal agents” (University of Kentucky Research Foundation, priority 2019, dated 2023)
Where two headings read alike, the source gives them in different places.

What was measured:
Assay in all cases: MIC determination (broth microdilution)
Assay type in all cases: cell-based, Candida auris
Details in all cases: Candidozyma auris
[1] = system: C. auris AR Bank # 0390 (strain L)
[2] = system: C. auris AR Bank # 0385 (strain IV)
[3] = system: C. auris AR Bank # 0381 (strain I)
[4] = system: C. auris AR Bank # 0382 (strain II)
[5] = system: C. auris AR Bank # 0384 (strain K)
[6] = system: C. auris AR Bank # 0386 (strain V)
[7] = system: C. auris AR Bank # 0389 (strain VIII)
[8] = system: C. auris AR Bank # 0387 (strain VI)
[9] = system: C. auris AR Bank # 0388 (strain VII)
[10] = system: C. auris AR Bank # 0383 (strain III)
[11] = strain L = C. auris AR Bank # 0390, MIC-2, read-out: MIC (MIC-2 for azoles)
[12] = strain L = C. auris AR Bank # 0390, MIC-2, read-out: MIC (MIC-2 for azoles, in parentheses)
[13] = strain IV = C. auris AR Bank # 0385, MIC-2, read-out: MIC (MIC-2 for azoles)
[14] = strain IV = C. auris AR Bank # 0385, MIC-2, read-out: MIC (MIC-2 for azoles, in parentheses)
[15] = strain I = C. auris AR Bank # 0381, MIC-2, optical density at 600 nm, read-out: MIC (MIC-2 for azoles)
[16] = strain I = C. auris AR Bank # 0381, MIC-2, optical density at 600 nm, read-out: MIC (MIC-2 for azoles, in parentheses)
[17] = strain II = C. auris AR Bank # 0382, MIC-2, read-out: MIC (MIC-2 for azoles)
[18] = strain II = C. auris AR Bank # 0382, MIC-2, read-out: MIC (MIC-2 for azoles, in parentheses)
[19] = strain K = C. auris AR Bank # 0384, MIC-2, read-out: MIC (MIC-2 for azoles)
[20] = strain K = C. auris AR Bank # 0384, MIC-2, read-out: MIC (MIC-2 for azoles, in parentheses)
[21] = strain V = C. auris AR Bank # 0386, MIC-2, read-out: MIC (MIC-2 for azoles)
[22] = strain V = C. auris AR Bank # 0386, MIC-2, read-out: MIC (MIC-2 for azoles, in parentheses)
[23] = strain VIII = C. auris AR Bank # 0389, MIC-2, read-out: MIC (MIC-2 for azoles)
[24] = strain VIII = C. auris AR Bank # 0389, MIC-2, read-out: MIC (MIC-2 for azoles, in parentheses)
[25] = strain VI = C. auris AR Bank # 0387, MIC-2, read-out: MIC (MIC-2 for azoles)
[26] = strain VI = C. auris AR Bank # 0387, MIC-2, read-out: MIC (MIC-2 for azoles, in parentheses)
[27] = strain VII = C. auris AR Bank # 0388, MIC-2, read-out: MIC (MIC-2 for azoles)
[28] = strain VII = C. auris AR Bank # 0388, MIC-2, read-out: MIC (MIC-2 for azoles, in parentheses)

| Compound | MIC [1, 11] | MIC [1, 12] | MIC [2, 13] | MIC [2, 14] | MIC [3, 15] | MIC [3, 16] | MIC [4, 17] | MIC [4, 18] | MIC [5, 19] | MIC [5, 20] | MIC [6, 21] | MIC [6, 22] | MIC [7, 23] | MIC [7, 24] | MIC [8, 25] | MIC [8, 26] | MIC [9, 27] | MIC [9, 28] | further results |
| --- | --- | --- | --- | --- | --- | --- | --- | --- | --- | --- | --- | --- | --- | --- | --- | --- | --- | --- | --- |
| OC(Cn1cncn1)(Cn1cncn1)c1ccc(F)cc1F [FLC, fluconazole] | > 62.5 µg/mL | > 204 µM | > 62.5 µg/mL | > 204 µM | 0.49 µg/mL | 1.6 µM | 0.49 µg/mL | 1.6 µM | 31.3 µg/mL | 102 µM | > 62.5 µg/mL | > 204 µM | > 62.5 µg/mL | > 204 µM | 0.98 µg/mL | 3.2 µM | > 62.5 µg/mL | > 204 µM | – |
| C[C@@H](c1ncncc1F)[C@](O)(Cn1cncn1)c1ccc(F)cc1F [VRC, voriconazole] | 0.49 µg/mL | 1.4 µM | 3.9 µg/mL | 11.2 µM | 0.06 µg/mL | 0.2 µM | 0.06 µg/mL | 0.2 µM | 0.24 µg/mL | 0.7 µM | 3.9 µg/mL | 11.2 µM | 0.98 µg/mL | 2.8 µM | 0.06 µg/mL | 0.2 µM | 0.49 µg/mL | 1.4 µM | MIC ([10]; strain III = C. auris AR Bank # 0383, MIC-2, read-out: MIC (MIC-2 for azoles)): 1.95 µg/mL; MIC ([10]; strain III = C. auris AR Bank # 0383, MIC-2, read-out: MIC (MIC-2 for azoles, in parentheses)): 5.6 µM |
| CC[C@H](C)C[C@H](C)CCCCCCCCC(=O)N[C@H]1C[C@@H](O)[C@@H](NCCN)NC(=O)[C@@H]2[C@@H](O)CCN2C(=O)[C@H]([C@H](O)CCN)NC(=O)[C@H]([C@H](O)[C@@H](O)c2ccc(O)cc2)NC(=O)[C@@H]2C[C@@H](O)CN2C(=O)[C@H]([C@@H](C)O)NC1=O [CAS, caspofungin] | – | – | – | – | – | – | – | – | – | – | – | – | – | – | – | – | – | – | MIC [1]: 7.8 µg/mL; MIC ([1]; read-out: MIC (in parentheses)): 7.1 µM; MIC [2]: < 0.98 µg/mL; MIC ([2]; read-out: MIC (in parentheses)): < 0.9 µM; MIC [3]: < 0.98 µg/mL; MIC ([3]; read-out: MIC (in parentheses)): < 0.9 µM; MIC [4]: < 0.98 µg/mL; MIC ([4]; read-out: MIC (in parentheses)): < 0.9 µM; MIC [5]: 1.95 µg/mL; MIC ([5]; read-out: MIC (in parentheses)): 1.8 µM; MIC [6]: 7.8 µg/mL; MIC ([6]; read-out: MIC (in parentheses)): 7.1 µM; MIC [7]: 7.8 µg/mL; MIC ([7]; read-out: MIC (in parentheses)): 7.1 µM; MIC [8]: 31.3 µg/mL; MIC ([8]; read-out: MIC (in parentheses)): 28.6 µM; MIC [10]: 1.95 µg/mL; MIC ([10]; read-out: MIC (in parentheses)): 1.8 µM; MIC [9]: 31.3 µg/mL; MIC ([9]; read-out: MIC (in parentheses)): 28.6 µM |
